Tested on: 129Sv/J Alport mice (COL4A3 knockout mouse)
Test: Animal model of Alport syndrome
Assay type: in vivo, 129Sv/J mice
Settings: 100 mg/kg oral once a day, 4 weeks
Description: The experiment was conducted using 129Sv/J mice (Boys town hospital). Animals groups were (i) 129Sv/J wild-type mice with vehicle administration (0.5% methyl cellulose suspension), (ii) 129Sv/J Alport mice (COL4A3 knockout mouse, Cosgrove D et al., Genes Dev. 1996 Dec. 1, 10(23):2981-92) with vehicle administration (0.5% methyl cellulose suspension) (iii) 129Sv/J Alport mice with BC-KI-00053 administration. Each animal group consists of two mice. BC-KI-00053 was dissolved in 0.5% methyl cellulose suspension and orally administered at a concentration of 100 mg/kg, and kidney fibrosis and the immune cell infiltration were evaluated. Each animal group was treated with a control substance or a test agent once a day from 3 weeks of age for a total of 4 weeks. After 4 weeks of treatment, kidney paraffin sections were stained with collagen I (a marker of fibrosis) and CD45 to observe the extent of leukocyte infiltration. Evaluation of fibrosis and infiltration was performed in the same manner as in the above examples.

COc1ccc(CCN(Cc2ccc(C(=O)O)cc2)c2nc3cccc(F)c3s2)cc1 [BC-KI-00053, 4-({(7-fluorobenzo[d]thiazol-2-yl)[2-(4-methoxyphenyl)ethyl]amino}methyl)benzoic acid]
fibrosis in the kidneys (collagen I): reduced down to the normal level | leukocyte infiltration in the kidneys (CD45): reduced down to the normal level
